Values quoted from earlier work in patent US20260137744A1, “MELATONIN-ENRICHED COMPOSITION OF PISTACIA VERA (PISTACHIO) AND A METHOD OF PREPARATION THEREOF” (Network Nutrition Pty Limited, priority 2024, published 2026).

COc1ccc2[nH]cc(CCNC(C)=O)c2c1 [melatonin]
peak concentration in the bloodstream, time after oral dosage (after oral dosage): approximately 50 minutes | bioavailability (oral melatonin, average, varies significantly among individuals): around 15%
